In one series the target is T1, Integrin alpha-4/beta-7 (Homo sapiens, UniProt P13612+P26010).
T1 sequence (P13612 whole entry): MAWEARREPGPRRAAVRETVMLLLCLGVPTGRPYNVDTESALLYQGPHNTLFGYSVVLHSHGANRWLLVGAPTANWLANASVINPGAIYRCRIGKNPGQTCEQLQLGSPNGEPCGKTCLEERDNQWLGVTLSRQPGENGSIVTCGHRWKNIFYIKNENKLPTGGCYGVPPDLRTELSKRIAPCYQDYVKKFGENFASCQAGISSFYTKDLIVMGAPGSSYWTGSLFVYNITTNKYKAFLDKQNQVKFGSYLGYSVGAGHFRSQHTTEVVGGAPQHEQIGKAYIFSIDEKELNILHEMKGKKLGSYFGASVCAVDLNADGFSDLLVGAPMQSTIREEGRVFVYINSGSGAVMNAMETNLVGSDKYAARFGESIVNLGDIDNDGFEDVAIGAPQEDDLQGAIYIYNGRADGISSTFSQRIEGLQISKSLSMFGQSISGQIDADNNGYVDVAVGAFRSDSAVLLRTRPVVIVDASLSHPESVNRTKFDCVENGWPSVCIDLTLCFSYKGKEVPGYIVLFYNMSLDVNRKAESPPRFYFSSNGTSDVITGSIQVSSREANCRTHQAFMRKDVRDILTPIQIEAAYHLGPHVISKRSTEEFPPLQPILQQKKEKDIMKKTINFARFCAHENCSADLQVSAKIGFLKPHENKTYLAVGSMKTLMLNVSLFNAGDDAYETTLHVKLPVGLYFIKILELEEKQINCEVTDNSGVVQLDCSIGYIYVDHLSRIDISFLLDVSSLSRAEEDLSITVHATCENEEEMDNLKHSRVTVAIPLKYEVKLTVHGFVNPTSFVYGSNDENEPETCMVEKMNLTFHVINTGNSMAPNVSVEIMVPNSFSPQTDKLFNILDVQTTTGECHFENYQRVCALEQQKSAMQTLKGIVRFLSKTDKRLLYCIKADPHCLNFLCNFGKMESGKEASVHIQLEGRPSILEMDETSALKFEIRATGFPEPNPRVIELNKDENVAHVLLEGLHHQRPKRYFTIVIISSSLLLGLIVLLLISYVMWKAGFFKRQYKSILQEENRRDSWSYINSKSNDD
T1 sequence (P26010 whole entry): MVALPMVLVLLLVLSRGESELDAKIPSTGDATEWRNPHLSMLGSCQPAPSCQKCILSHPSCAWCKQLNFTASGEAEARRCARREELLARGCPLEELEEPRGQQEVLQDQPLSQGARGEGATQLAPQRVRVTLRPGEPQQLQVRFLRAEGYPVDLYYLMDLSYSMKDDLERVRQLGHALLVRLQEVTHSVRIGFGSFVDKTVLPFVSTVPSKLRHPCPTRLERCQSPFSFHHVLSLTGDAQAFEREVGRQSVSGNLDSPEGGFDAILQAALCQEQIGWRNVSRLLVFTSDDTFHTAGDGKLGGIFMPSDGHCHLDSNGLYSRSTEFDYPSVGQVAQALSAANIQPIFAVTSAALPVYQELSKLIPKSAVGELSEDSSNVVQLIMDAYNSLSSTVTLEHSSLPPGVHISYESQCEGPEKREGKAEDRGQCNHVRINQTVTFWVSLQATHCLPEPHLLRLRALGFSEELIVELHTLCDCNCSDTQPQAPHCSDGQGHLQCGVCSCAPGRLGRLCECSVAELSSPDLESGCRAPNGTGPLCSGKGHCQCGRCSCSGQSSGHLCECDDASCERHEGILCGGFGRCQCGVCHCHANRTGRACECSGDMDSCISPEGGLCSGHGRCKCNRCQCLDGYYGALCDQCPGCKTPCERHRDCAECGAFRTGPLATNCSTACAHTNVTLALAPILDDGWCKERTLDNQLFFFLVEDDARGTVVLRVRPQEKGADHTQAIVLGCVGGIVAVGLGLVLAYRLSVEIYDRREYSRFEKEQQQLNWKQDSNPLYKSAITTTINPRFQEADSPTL
In words: Inhibition of human MAdCAM1 binding to integrin alpha4beta7 receptor in human RPMI 8866 cells labeled with Calcein AM. Format: cell-based.

Series [1] concerns the target Integrin alpha-4/beta-7 (Homo sapiens) (UniProt P13612+P26010). In words: Inhibition of human MAdCAM1 binding to integrin alpha4beta7 receptor in human RPMI 8866 cells labeled with Calcein AM relative to (S)-2-(2-chloro-6-methylbenzamido)-3-(4-(2,6-dichlorobenzamido)phenyl)propanoic acid. The format is cell-based.
A short description of series [2]: AUC (0 to 8 hrs) in dog at 5 mg/kg, iv. Particulars: plasma. Format: ADME, organism-based, Canis lupus familiaris. The arrangement: time < 8 hr, dose 5 mg/kg, route intravenous.
Series [3] in a line: Mean residence time in cynomolgus monkey at 10 mg/kg, iv. The format is ADME, organism-based, Macaca fascicularis. The arrangement: dose 10 mg/kg, route intravenous. To be noted: in vivo.
A short description of series [4]: Half life in dog at 5 mg/kg, iv. The format is ADME, organism-based, Canis lupus familiaris. The arrangement: dose 5 mg/kg, route intravenous. Particulars: in vivo.
A short description of series [5]: Distribution coefficient, log D of the compound. To be noted: octanol/water. The format is physicochemical.
Series [6] is described as follows: Half life in cynomolgus monkey at 10 mg/kg, iv. Format: ADME, organism-based, Macaca fascicularis. More on the design: dose 10 mg/kg, route intravenous. Particulars: in vivo.
A short description of series [7]: Clearance in rat at 10 mg/kg, iv. The format is ADME, organism-based. More on the design: dose 10 mg/kg, route intravenous. Particulars: in vivo.
The nature of series [8]: Apparent permeability across human Caco2 cells. To be noted: Caco-2. The format is ADME, cell-based. On the technique in general: Caco-2 cells form a polarised layer with tight junctions and transporters.
Series [9] in a line: Clearance in mouse at 10 mg/kg, iv. The format is ADME, organism-based. More on the design: dose 10 mg/kg, route intravenous. To be noted: in vivo.
Series [10] is described as follows: Clearance in cynomolgus monkey at 10 mg/kg, iv. Format: ADME, organism-based, Macaca fascicularis. More on the design: dose 10 mg/kg, route intravenous. To be noted: in vivo.
Series [11] is described as follows: AUC (0 to 8 hrs) in rat at 10 mg/kg, iv. Particulars: plasma. More on the design: time < 8 hr, dose 10 mg/kg, route intravenous. Format: ADME, organism-based.
Series [12] concerns the target T2, Integrin alpha-4/beta-1 (Homo sapiens, UniProt P05556+P13612). The experiment in a line: Inhibition of human VCAM1 binding to integrin alpha4beta1 receptor in human Ramos cells labeled with Calcein AM. Format: cell-based.
Series [13] is described as follows: AUC (0 to 8 hrs) in cynomolgus monkey at 10 mg/kg, iv. The arrangement: time < 8 hr, dose 10 mg/kg, route intravenous. To be noted: plasma. Format: ADME, organism-based, Macaca fascicularis.
The nature of series [14]: Clearance in dog at 5 mg/kg, iv. The format is ADME, organism-based, Canis lupus familiaris. The arrangement: dose 5 mg/kg, route intravenous. To be noted: in vivo.
Series [15] can be described thus: AUC (0 to 8 hrs) in mouse at 10 mg/kg, iv. Format: ADME, organism-based. More on the design: time < 8 hr, dose 10 mg/kg, route intravenous. Particulars: plasma.
Series [16] is described as follows: Mean residence time in dog at 5 mg/kg, iv. Format: ADME, organism-based, Canis lupus familiaris. The arrangement: dose 5 mg/kg, route intravenous. To be noted: in vivo.
Series [17] can be described thus: Mean residence time in rat at 10 mg/kg, iv. To be noted: in vivo. More on the design: dose 10 mg/kg, route intravenous. The format is ADME, organism-based.
In series [18] the target is T2, Integrin alpha-4/beta-1. The experiment in a line: Inhibition of human VCAM1 binding to integrin alpha4beta1 receptor in human Ramos cells labeled with Calcein AM relative to (S)-2-(2-chloro-6-methylbenzamido)-3-(4-(2,6-dichlorobenzamido)phenyl)propanoic acid. Format: cell-based.
The nature of series [19]: Mean residence time in mouse at 10 mg/kg, iv. The format is ADME, organism-based. The arrangement: dose 10 mg/kg, route intravenous. Particulars: in vivo.

T2 sequence (P05556 whole entry, one chain of several): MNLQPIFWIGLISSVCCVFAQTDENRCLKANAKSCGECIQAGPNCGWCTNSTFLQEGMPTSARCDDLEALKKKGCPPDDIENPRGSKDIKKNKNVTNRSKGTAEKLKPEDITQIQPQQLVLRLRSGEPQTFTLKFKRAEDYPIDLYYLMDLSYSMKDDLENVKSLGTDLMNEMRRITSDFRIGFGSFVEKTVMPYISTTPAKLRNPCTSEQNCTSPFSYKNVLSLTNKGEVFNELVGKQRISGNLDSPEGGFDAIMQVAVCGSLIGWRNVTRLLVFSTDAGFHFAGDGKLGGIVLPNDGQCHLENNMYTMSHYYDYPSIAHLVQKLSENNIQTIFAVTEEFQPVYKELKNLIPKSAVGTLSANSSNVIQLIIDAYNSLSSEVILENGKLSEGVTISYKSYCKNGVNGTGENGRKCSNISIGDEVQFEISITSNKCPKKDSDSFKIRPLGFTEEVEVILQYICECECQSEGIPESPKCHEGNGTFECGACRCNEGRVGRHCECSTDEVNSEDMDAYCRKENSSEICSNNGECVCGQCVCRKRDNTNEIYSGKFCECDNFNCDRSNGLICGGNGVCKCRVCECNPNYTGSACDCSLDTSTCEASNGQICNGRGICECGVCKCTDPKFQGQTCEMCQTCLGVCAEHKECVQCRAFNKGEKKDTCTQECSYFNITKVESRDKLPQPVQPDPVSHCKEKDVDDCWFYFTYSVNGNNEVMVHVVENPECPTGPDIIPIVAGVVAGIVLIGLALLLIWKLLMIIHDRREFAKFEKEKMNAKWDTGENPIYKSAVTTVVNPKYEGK

In the case of `Cc1c(-c2ccc(C[C@H](NC(=O)c3c(F)cccc3F)C(=O)O)cc2)c(=O)n(C)c(=O)n1C`, the IC50 is 81 nM at Integrin alpha-4/beta-7 and 18 nM on Integrin alpha-4/beta-1 [12]. In addition, the Ratio IC50 in series [1] was 3.3; at Integrin alpha-4/beta-1 [18], 3.2. In addition, the AUC(0-t) at 8 h in [2] was 2790 ng·h/mL; in series [11] it was 41500 ng·h/mL; in series [13] it was 22200 ng·h/mL; in [15], 7890 ng·h/mL. The MRT came to 15 min in [3], 12.6 min in series [16], 36.6 min in [17] and 15.6 min in [19]. The half-life in series [4] is 11.4 min; in [6], 87.6 min. The logD in series [5] was -2.36. For the same compound, the clearance amounted to 4.8 mL/min/kg in series [7], 21 mL/min/kg in series [9], 6.88 mL/min/kg in series [10] and 29.7 mL/min/kg in [14]. The Papp in [8] stood at 0.77 ×10⁻⁶ cm/s.

The IC50 is the concentration at which inhibition is half-maximal. What is called AUC(0-t) is exposure summed from dosing to a finite time, without extrapolation to infinity. By MRT is commonly meant a mean duration of stay, worked out from the concentration-time curve. As usually defined, the half-life is the time needed for the level to fall by half in the phase considered. A word on the logD: it is the decadic logarithm of the distribution of all forms, ionised or not, between an organic phase and buffer at a given pH. By clearance is commonly meant a measure of how efficiently the substance is removed, as volume per time. The Papp is a coefficient for how fast a substance crosses the barrier.

These data come from ChEMBL document CHEMBL2331362, “Identification of N-acyl 4-(5-pyrimidine-2,4-dionyl)phenylalanine derivatives and their orally active prodrug esters as dual-acting alpha4-beta1 and alpha4-beta7 receptor antagonists” (Bioorg Med Chem Lett, 2013).
